Common to all, as to type: cell-based
Assay [1] addresses T1, Protein cereblon/Bcl-2-like protein 1 (Homo sapiens, UniProt Q07817+Q96SW2). The assay is described as follows: PROTAC activity at CRBN/BCL-XL in human WI-38 cells assessed as induction of BCL-XL degradation incubated for 16 hrs by Western blot analysis. On the technique in general: Immunoblotting shows a protein as a band on a membrane.
Target sequence in this assay (Q07817 whole entry): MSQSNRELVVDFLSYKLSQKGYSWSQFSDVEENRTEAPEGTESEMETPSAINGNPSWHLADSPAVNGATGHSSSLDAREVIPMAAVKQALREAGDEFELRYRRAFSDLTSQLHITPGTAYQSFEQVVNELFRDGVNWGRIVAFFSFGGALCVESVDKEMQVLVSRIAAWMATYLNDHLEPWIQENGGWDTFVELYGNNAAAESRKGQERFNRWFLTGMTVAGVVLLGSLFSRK
Target sequence in this assay (Q96SW2 whole entry): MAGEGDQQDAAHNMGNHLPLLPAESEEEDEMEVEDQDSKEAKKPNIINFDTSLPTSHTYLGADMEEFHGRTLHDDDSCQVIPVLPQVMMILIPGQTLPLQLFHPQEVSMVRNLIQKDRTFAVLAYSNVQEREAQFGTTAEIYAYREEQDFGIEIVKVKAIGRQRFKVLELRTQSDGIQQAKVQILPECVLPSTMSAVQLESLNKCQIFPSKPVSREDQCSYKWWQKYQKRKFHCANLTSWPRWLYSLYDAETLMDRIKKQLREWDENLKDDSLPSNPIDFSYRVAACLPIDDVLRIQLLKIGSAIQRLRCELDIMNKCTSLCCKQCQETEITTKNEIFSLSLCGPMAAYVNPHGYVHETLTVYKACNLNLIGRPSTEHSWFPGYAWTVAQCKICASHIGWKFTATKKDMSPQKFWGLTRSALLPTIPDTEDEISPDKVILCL
The target in assay [2] is T1, Protein cereblon/Bcl-2-like protein 1. The assay is described as follows: PROTAC activity at CRBN/BCL-XL in human WI-38 cells assessed as induction of BCL-XL degradation incubated for 16 hrs by Western blot analysis relative to control.
Target sequence in this assay (Q07817 whole entry, looked up): as the sequence (Q07817 whole entry) above
Target sequence in this assay (Q96SW2 whole entry, looked up): as the sequence (Q96SW2 whole entry) above
Assay [3] addresses Protein cereblon/Peptidyl-prolyl cis-trans isomerase FKBP1A (Homo sapiens, UniProt P62942+Q96SW2). Nature of the assay: PROTAC activity at CRBN/FKBP12 in human Jurkat cells assessed as induction of FKBP12 degradation incubated for 12 hrs by Western blot analysis.

Chain of Protein cereblon/Peptidyl-prolyl cis-trans isomerase FKBP1A (P62942 whole entry): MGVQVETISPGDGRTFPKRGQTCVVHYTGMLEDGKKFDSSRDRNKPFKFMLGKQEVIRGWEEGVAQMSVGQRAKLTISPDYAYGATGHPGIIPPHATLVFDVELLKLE
Chain of Protein cereblon/Peptidyl-prolyl cis-trans isomerase FKBP1A (Q96SW2 whole entry): as the sequence (Q96SW2 whole entry) above

Regarding `CC1(C)CCC(c2ccccc2)=C(CN2CCN(c3ccc(C(=O)NS(=O)(=O)c4ccc(N[C@H](CCN5CCN(C(=O)CCCn6cc(COCCOCCNc7cccc8c7C(=O)N(C7CCC(=O)NC7=O)C8=O)nn6)CC5)CSc5ccccc5)c(S(=O)(=O)C(F)(F)F)c4)cc3)CC2)C1` (stereo partly drawn), the EC50 (as a rule, the midpoint of the concentration-response curve) in assay [1] worked out at 46 nM. The Emax (commonly the size of the effect at its maximum, as opposed to the concentration needed) in assay [2] is 96.2%.

Regarding `CO[C@H]1C[C@@H]2CC[C@@H](C)[C@@](O)(O2)C(=O)C(=O)N2CCCC[C@H]2C(=O)O[C@H]([C@@H](C)C[C@@H]2CC[C@@H](OCCOCc3cn(CCOCCOCCNc4cccc5c4C(=O)N(C4CCC(=O)NC4=O)C5=O)nn3)[C@H](OC)C2)CC(=O)[C@H](C)/C=C(\C)[C@@H](O)[C@H](OC)C(=O)[C@H](C)C[C@H](C)/C=C/C=C/C=C/1C` (stereo partly drawn), the EC50 in assay [3] was less than 0.3 nM.

These data come from ChEMBL document CHEMBL5104095, “Proteolysis targeting chimera (PROTAC) in drug discovery paradigm: Recent progress and future challenges” (Eur J Med Chem, 2021).
